Assay results as given in PMC8424629, “Chemical “Butterfly Effect” Explaining the Coordination Chemistry and Antimicrobial Properties of Clavanin Complexes” (Inorganic Chemistry, 2021).
Converted amounts (≈) assume the structure as drawn. Read-outs that look alike come from different tables or passages of the source. Where no end group is shown, it is not given here.

What was measured:
[1] = assay type: physicochemical; details: for log β H2L / log β H3L / log β H4L / log β H5L / log β H6L / log β HL: potentiometry pH 2-11, 298 K, 4 mM HClO4, I = 40 mM SDS, ligand 0.5 mM, SD in parentheses
Experimental: (§1) All peptides ([…]-COOH, […]-COOH, […]
(§2) were purchased from KareBay Biochem (USA) (certified purity: 98 %) and were used as received.
(§3) The carbonate-free stock solutions of 0.1 M NaOH were purchased from Sigma-Aldrich and then potentiometrically standardized with the primary standard potassium hydrogen phthalate (99.9 % purity). […]
(§4) Stability constants for proton, Zn(II) and Cu(II) complexes were calculated from pH -metric titration curves carried out over the pH range 2-11 at T = 298 K in water solution of 4 mM HClO 4 and ionic strength 40 mM (SDS), using a total volume of 3 ml. The potentiometric titrations were performed using a Metrohm Titrando 905 titrator and a Mettler Toledo InLab Micro comb ined pH electrode. The thermostabilized glass -cell was equipped with a magnetic stirring system, a microburette delivery tube and an inlet –outlet tube for argon.
(§5) Solutions were titrated with 0.1 M carbonate-free NaOH. The electrodes were calibrated daily f or hydrogen ion concentration by titrating HClO 4 with NaOH under the same experimental conditions as above. The purities and the exact concentrations of the ligand solutions were determined by the Gran method. 1 The ligand concentration was 0.5 mM. The Zn(II) and Cu(II) to ligand ratio was 1 : 1.
(§6) The standard potential and the slope of the electrode couple were computed by means of Glee 2 program. The HYPERQUAD 20063 program was used for the stability constant calculations. The standard deviations were computed by HYPERQUAD 2006 and refer to random errors only. The constants for the hydrolytic Zn(II ) species

[2] = assay type: binding; details: for log β ZnH2L / log β ZnH3L / log β ZnH4L / log β ZnHL / log β ZnL: Zn(II):L 1:1, 0.5 mM
Experimental: as §1, §2, §3, §4, §5, §6

[3] = system: Enterococcus faecalis ATCC 29212; details: ATCC 29212, 24 h
[4] = system: Candida albicans ATCC 10231; details: ATCC 10231, 24 h
[5] = system: E. coli; details: literature describes C-amidated clavanins, cited from earlier work
Source text: During the over 20-year study on clavanins (mainly clavanin A), various modes of action were proposed.[15],[18],[19] […] The second is observed at acidic pH (5.5) when clavanin A binds to DNA and disrupts DNA synthesis, similarly to indolicidin.[20] The third mechanism, which also occurs at pH 5.5, is assigned not to the “single” clavanin A but to its Zn(II) complex, which cleav ...

[6] = system: Enterobacterales (for E. coli); design: method as in earlier work; details: EUCAST/2021/01/01, ref 22 (SI), cited from earlier work; for MIC breakpoints R>: resistant breakpoint; for MIC breakpoints S≤: susceptible breakpoint
[7] = system: Staphylococcus spp. (for S. aureus); design: method as in earlier work; details: EUCAST/2021/01/01, ref 22 (SI), cited from earlier work; for MIC breakpoints R>: resistant breakpoint; for MIC breakpoints S≤: susceptible breakpoint
[8] = system: Enterococcus spp. (for E. faecalis); design: method as in earlier work; details: EUCAST/2021/01/01, ref 22 (SI), cited from earlier work; for MIC breakpoints R>: resistant breakpoint; for MIC breakpoints S≤: susceptible breakpoint
[9] = system: MRSA Staphylococcus aureus ATCC 43300; details: ATCC 43300, 24 h
[10] = potentiometry, 298 K, I = 40 mM SDS, Cu(II):L 1:1, 0.5 mM, SD in parentheses
[11] = potentiometry, 298 K, I = 40 mM SDS, SD in parentheses

H-VFQFLGKIIHHVGNFVHGFSHVF-OH [Clavanin A]
pKa, species H2L [1]: 8.88
pKa, species H3L [1]: 8.09
pKa, species H4L [1]: 7.63
pKa, species H5L [1]: 6.92
pKa, species H6L [1]: 5.32
pKa, species HL [1]: 10.18
log β H2L [1]: 19.06 (6)
log β H3L [1]: 27.15 (8)
log β H4L [1]: 34.78 (7)
log β H5L [1]: 41.7 (8)
log β H6L [1]: 47.02 (10)
log β HL [1]: 10.18 (6)
pKa, line CuH2L [2]: 6.82
pKa, line CuH3L [2]: 6.01
pKa, line CuH-1L [2]: 8.82
pKa, line CuH-2L [2]: 9.76
pKa, line CuH-3L [2]: 10.16
pKa, line CuHL [2]: 7.56
pKa, line CuL [2]: 8.36
pKa, line ZnH2L [2]: 7.15
pKa, line ZnH3L [2]: 6.59
pKa, line ZnHL [2]: 8.53
pKa, line ZnL [2]: 9.36
log β CuH2L [2, 10]: 27.53 (3)
log β CuH3L [2, 10]: 34.35 (2)
log β CuH4L [2, 10]: 40.36 (2)
log β CuH-1L [2, 10]: 2.79 (3)
log β CuH-2L [2, 10]: -6.97 (3)
log β CuH-3L [2, 10]: -17.13 (3)
log β CuHL [2, 10]: 19.97 (3)
log β CuL [2, 10]: 11.61 (3)
log β ZnH2L [2, 11]: 23.99 (2)
log β ZnH3L [2, 11]: 31.14 (3)
log β ZnH4L [2, 11]: 37.74 (12)
log β ZnHL [2, 11]: 15.46 (2)
log β ZnL [2, 11]: 6.10 (7)
MIC [3]: 256 µg/mL
MIC [4]: 128 µg/mL
minimum inhibitory concentration (MIC) ([5]; pH 5.5, with addition of Zn(II) ions): 4 µM
minimum inhibitory concentration (MIC) ([5]; pH 5.5, without Zn(II)): 64 µM

C[C@@H]1O[C@@H]1P(=O)(O)O [Fosfomycin iv, Fosfomycin]
MIC breakpoints R> [6]: > 32 µg/mL
MIC breakpoints S≤ [6]: ≤ 32 µg/mL
MIC breakpoints R> [7]: > 32 µg/mL
MIC breakpoints S≤ [7]: ≤ 32 µg/mL

O=C1CN(/N=C/c2ccc([N+](=O)[O-])o2)C(=O)N1 [Nitrofurantoin]
MIC breakpoints R> [6]: > 64 µg/mL
MIC breakpoints S≤ [6]: ≤ 64 µg/mL
MIC breakpoints R> [8]: > 64 µg/mL
MIC breakpoints S≤ [8]: ≤ 64 µg/mL
MIC breakpoints R> [7]: > 64 µg/mL
MIC breakpoints S≤ [7]: ≤ 64 µg/mL

O=[N+]([O-])c1ccc(O)c2ncccc12 [Nitroxoline]
MIC breakpoints R> [6]: > 16 µg/mL
MIC breakpoints S≤ [6]: ≤ 16 µg/mL

CC1=C(C(=O)O)N2C(=O)[C@@H](NC(=O)[C@H](N)c3ccccc3)[C@H]2SC1 [Cefalexin]
MIC breakpoints R> [6]: > 16 µg/mL
MIC breakpoints S≤ [6]: ≤ 16 µg/mL

CCN1CCN(C(=O)N[C@@H](C(=O)N[C@@H]2C(=O)N3[C@@H]2SC(C)(C)[C@@H]3C(=O)O)c2ccccc2)C(=O)C1=O [Piperacillin]
MIC breakpoints R> [6]: > 8 µg/mL
MIC breakpoints S≤ [6]: ≤ 8 µg/mL

CC[C@H](C)[C@H](NC(=O)[C@H](CCCCN)NC(=O)CNC(=O)[C@H](CC(C)C)NC(=O)[C@H](CC(C)C)NC(=O)[C@H](Cc1c[nH]cn1)NC(=O)[C@H](Cc1ccccc1)NC(=O)[C@@H](N)C(C)C)C(=O)N[C@H](C(=O)N[C@@H](Cc1c[nH]cn1)C(=O)N[C@@H](Cc1c[nH]cn1)C(=O)N[C@H](C(=O)NCC(=O)N[C@@H](CC(N)=O)C(=O)N[C@@H](Cc1ccccc1)C(=O)N[C@H](C(=O)N[C@@H](Cc1ccc(O)cc1)C(=O)NCC(=O)N[C@@H](Cc1ccccc1)C(=O)N[C@@H](CO)C(=O)N[C@@H](Cc1c[nH]cn1)C(=O)N[C@H](C(=O)N[C@@H](Cc1ccccc1)C(=O)O)C(C)C)C(C)C)C(C)C)[C@@H](C)CC [Clavanin C]
pKa, species H2L [1]: 8.87
pKa, species H3L [1]: 8.08
pKa, species H4L [1]: 7.57
pKa, species H5L [1]: 7.10
pKa, species H6L [1]: 5.25
pKa, species HL [1]: 10.72
pKa, line CuH4L [2]: 4.99
pKa, line CuH-1L [2]: 8.09
pKa, line CuH-2L [2]: 10.66
pKa, line CuHL [2]: 6.10
pKa, line CuL [2]: 6.98
MIC [3]: 128 µg/mL (≈ 48 µM)
MIC [9]: 128 µg/mL (≈ 48 µM)
MIC [4]: 64 µg/mL (≈ 24 µM)

CC1(C)S[C@@H]2[C@H](NC(=O)[C@H](N)c3ccc(O)cc3)C(=O)N2[C@H]1C(=O)O [Amoxicillin]
MIC breakpoints R> [8]: > 8 µg/mL
MIC breakpoints S≤ [8]: ≤ 4 µg/mL

CC1=C(C(=O)O)N2C(=O)[C@@H](NC(=O)[C@H](N)c3ccc(O)cc3)[C@H]2SC1 [Cefadroxil]
MIC breakpoints R> [6]: > 16 µg/mL
MIC breakpoints S≤ [6]: ≤ 16 µg/mL

VFQFLGRIIHHVGNFVHGFSHVF [Clavanin B]
pKa, species H2L [1]: 9.04
pKa, species H3L [1]: 8.26
pKa, species H4L [1]: 7.79
pKa, species H5L [1]: 7.09
pKa, species H6L [1]: 5.12
pKa, species HL [1]: 11.17
pKa, line CuH2L [2]: 6.86
pKa, line CuH3L [2]: 5.99
pKa, line CuH-1L [2]: 9.40
pKa, line CuH-2L [2]: 10.14
pKa, line CuH-3L [2]: 11.28
pKa, line CuHL [2]: 7.71
pKa, line CuL [2]: 8.64
pKa, line ZnH2L [2]: 7.37
pKa, line ZnH3L [2]: 6.62
pKa, line ZnHL [2]: 8.39
pKa, line ZnL [2]: 10.32

H-LFKLLGKIIHHVGNFVHGFSHVF-OH [Clavanin E]
pKa, species H2L [1]: 9.19
pKa, species H3L [1]: 8.29
pKa, species H4L [1]: 7.82
pKa, species H5L [1]: 7.30
pKa, species H6L [1]: 5.55
pKa, species HL [1]: 10.77
log β H2L [1]: 19.96 (3)
log β H3L [1]: 28.25 (3)
log β H4L [1]: 36.07 (3)
log β H5L [1]: 43.37 (3)
log β H6L [1]: 48.92 (4)
log β HL [1]: 10.77 (2)
pKa, line CuH2L [2]: 6.90
pKa, line CuH3L [2]: 5.96
pKa, line CuH4L [2]: 5.16
pKa, line CuH-1L [2]: 8.78
pKa, line CuH-2L [2]: 10.05
pKa, line CuH-3L [2]: 10.37
pKa, line CuHL [2]: 7.72
pKa, line CuL [2]: 8.81
pKa, line ZnH2L [2]: 7.18
pKa, line ZnHL [2]: 8.62
pKa, line ZnL [2]: 9.77
log β CuH2L [2, 10]: 29.52 (3)
log β CuH3L [2, 10]: 36.42 (3)
log β CuH4L [2, 10]: 42.38 (2)
log β CuH5L [2, 10]: 47.54 (3)
log β CuH-1L [2, 10]: 4.21 (4)
log β CuH-2L [2, 10]: -5.84 (4)
log β CuH-3L [2, 10]: -16.21 (5)
log β CuHL [2, 10]: 21.80 (3)
log β CuL [2, 10]: 12.99 (4)
log β ZnH2L [2, 11]: 25.12 (5)
log β ZnH3L [2, 11]: 32.30 (11)
log β ZnHL [2, 11]: 16.50 (6)
log β ZnL [2, 11]: 6.73
MIC [4]: 32 µg/mL

H-VFQFLGRIIHHVGNFVHGFSHVF-OH [Clavanin B]
log β H2L [1]: 20.21 (2)
log β H3L [1]: 28.47 (2)
log β H4L [1]: 36.26 (2)
log β H5L [1]: 43.35 (2)
log β H6L [1]: 48.47 (2)
log β HL [1]: 11.17 (1)
log β CuH2L [2, 10]: 28.72 (3)
log β CuH3L [2, 10]: 35.57 (2)
log β CuH4L [2, 10]: 41.57 (3)
log β CuH-1L [2, 10]: 2.96 (3)
log β CuH-2L [2, 10]: -7.17 (3)
log β CuH-3L [2, 10]: -18.46 (4)
log β CuHL [2, 10]: 21.00 (3)
log β CuL [2, 10]: 12.37 (3)
log β ZnH2L [2, 11]: 25.24 (2)
log β ZnH3L [2, 11]: 32.61 (2)
log β ZnH4L [2, 11]: 39.23 (7)
log β ZnHL [2, 11]: 16.85 (1)
log β ZnL [2, 11]: 6.53 (7)

NCC[C@H](O)C(=O)N[C@@H]1C[C@H](N)[C@@H](O[C@H]2O[C@H](CN)[C@@H](O)[C@H](O)[C@H]2O)[C@H](O)[C@H]1O[C@H]1O[C@H](CO)[C@@H](O)[C@H](N)[C@H]1O [Amikacin]
MIC breakpoints R> [7]: > 8 µg/mL
MIC breakpoints S≤ [7]: ≤ 8 µg/mL

CC1(C)S[C@@H]2[C@H](NC(=O)[C@H](C(=O)O)c3ccsc3)C(=O)N2[C@H]1C(=O)O [Ticarcillin]
MIC breakpoints R> [6]: > 16 µg/mL
MIC breakpoints S≤ [6]: ≤ 8 µg/mL

CC1(C)S[C@@H]2[C@H](NC(=O)[C@H](N)c3ccccc3)C(=O)N2[C@H]1C(=O)O [Ampicillin]
MIC breakpoints R> [8]: > 8 µg/mL
MIC breakpoints S≤ [8]: ≤ 4 µg/mL

O=C(N[C@H](CO)[C@H](O)c1ccc([N+](=O)[O-])cc1)C(Cl)Cl [Chloramphenicol]
MIC breakpoints R> [7]: > 8 µg/mL
MIC breakpoints S≤ [7]: ≤ 8 µg/mL
